We go through nine compounds from PubChem BioAssay (NCI).

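These data come from cells grown in 96-well plates and exposed to compound for 48 hours at five concentrations. Here, GI50 denotes the concentration required for 50% inhibition of growth. TGI denotes the concentration required for complete inhibition of growth.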

Holding throughout (assay): NCI-60 cell line screen, 48 h
Test [1] relates to 786-0 renal.
For test [2], the system named is HOP-62 NSCLC.
The test system of test [3] is NCI-H460 lung.
Test [4] deals with PC-3 prostate.
The subject of test [5] is RXF 393 renal.
Test [6] has as its system SK-MEL-28 melanoma.
Test [7] deals with SK-OV-3 ovarian.
Test [8] concerns SN12C renal.
Test [9] concerns U251 CNS.
Test [10] deals with UO-31 renal.

Turning to `Cc1cc(NCCCCNc2ccnc3cc(Cl)ccc23)nc(Nc2ccc(C(=O)N3CCCC3)cc2)n1`, the GI50 in test [1] is 1.57 µM; in test [2], 2.21 µM; in [3], 1.96 µM; in test [4], 3.79 µM; in [5], 1.47 µM; in test [6], 2 µM. Moreover, the GI50 was 3.49 µM in test [7], 2.85 µM in test [8], 2.08 µM in test [9] and 1.73 µM in [10]. For the same compound, the TGI in test [1] came out at 3.02 µM; in [2], 4.74 µM; in test [3] it was 4.98 µM; in test [4] it was 10.9 µM; in [5], 3.08 µM; in [6], 4.12 µM. Besides, the TGI in [7] was 9.11 µM; in test [8] it was 11.4 µM; in test [9], 4.8 µM; in test [10], 4.16 µM.

As for `O=C(N/N=c1/ccoc2cccnc12)N1CCN(c2ncccn2)CC1`, the GI50 was 0.291 µM in test [1]; 0.0436 µM in [2]; 0.0896 µM in test [3]; less than 0.01 µM in test [4]; 1.09 µM in test [5]; 0.996 µM in test [6]. Also, the GI50 in [7] is 0.194 µM; in test [8], 1.57 µM; in test [9] it was 0.0777 µM; in test [10], 0.397 µM. For the same compound, the TGI in test [1] is 2.59 µM; in test [2] it was 7.42 µM; in test [3] it was 11.1 µM; in [4] it was 6.38 µM; in test [5] it was 4.03 µM; in [6] it was 13.3 µM. Besides, the TGI stood at 4.55 µM in [7], 14.8 µM in test [8], 9.15 µM in test [9] and 3.96 µM in test [10].

Turning to `CC1CC(C)/C(=N/NC(N)=O)C(C(O)CC2CCC(=O)NC2=O)C1` (stereo not given), the GI50 in [1] was 3.46 µM; in test [2], 2.99 µM; in [3], 4 µM; in test [4], 4.1 µM; in test [5], 3.21 µM; in test [6], 3.91 µM. Besides, the GI50 was 4.08 µM in test [7], 1.99 µM in test [8], 1.96 µM in test [9] and 2.33 µM in [10]. In addition, the TGI in test [1] is more than 100 µM; in [2] it was more than 100 µM; in test [3] it was more than 100 µM; in test [4] it was more than 100 µM; in test [5], 31.7 µM; in test [6], more than 100 µM. For the same compound, the TGI was more than 100 µM in [7], more than 100 µM in test [8], 91.1 µM in test [9] and 34.3 µM in [10].

Take `O=C(Nc1ccc(Cl)cc1)c1ccc([N+](=O)[O-])o1`: the GI50 in [1] is 1.91 µM; in test [2] it was 1.49 µM; in test [3] it was 2.22 µM; in test [4], 2.35 µM; in test [5], 1.34 µM; in test [6], 1.78 µM. Besides, the GI50 was 2.64 µM in [7], 1.68 µM in test [8], 1.36 µM in test [9] and 1.38 µM in test [10]. Also, the TGI in test [1] is 4.05 µM; in test [2] it was 3.27 µM; in test [3], 5.55 µM; in test [4], more than 30.3 µM; in test [5], 3.42 µM; in [6] it was 3.79 µM. The TGI in test [7] is 7.27 µM; in [8], 4.12 µM; in test [9], 2.87 µM; in test [10], 2.96 µM.

Turning to `O=C1Nc2ccccc2/C1=C/c1ccccc1`, the TGI in [1] was found to be 28.4 µM; in [2], 38.5 µM; in [3], 38.5 µM; in test [4], 31.1 µM; in test [5], 22.9 µM; in test [6], 44.4 µM. Also, the TGI in test [7] stood at 98.3 µM; in [8], 28.5 µM; in test [9], 30 µM; in test [10], 25.3 µM.

Take `Cc1ccc(NSc2ccccc2[N+](=O)[O-])cc1`: the GI50 was 1.5 µM in test [1]; 0.283 µM in test [2]; 0.432 µM in test [3]; 1.29 µM in test [4]; 0.868 µM in [5]; 7.71 µM in test [6]. In addition, the GI50 in test [7] was 1.06 µM; in [8], 1.3 µM; in test [9] it was 0.768 µM; in test [10] it was 2.07 µM. In addition, the TGI in test [1] came out at 16.3 µM; in [2] it was 18.8 µM; in [3], 11.1 µM; in test [4], 16.6 µM; in test [5], 5.27 µM; in test [6], 26.4 µM. Further, the TGI in test [7] came out at 20.1 µM; in [8], 21.1 µM; in test [9], 16.3 µM; in [10] it was 16 µM.

Turning to `Cc1nc(N)sc1N=Nc1cc(Cl)c([N+](=O)[O-])cc1Cl`, the TGI in test [1] is more than 100 µM; in test [2], 65 µM; in test [3], 86.7 µM; in test [4] it was 53.3 µM; in [5], more than 100 µM; in test [6], 33.9 µM. The TGI in test [7] was more than 100 µM; in [8] it was 56.1 µM; in [9], 44.7 µM; in test [10] it was 66.9 µM.

For `Oc1ccc2ccccc2c1C(c1ccc(Cl)cc1)c1c(O)ccc2ccccc12`, the TGI in [1] was 12.4 µM; in [2], 16 µM; in [3], 11.3 µM; in test [4], 7.7 µM; in [5], 8.28 µM; in test [6], 15.9 µM. Also, the TGI stood at 19.9 µM in test [7], 9.72 µM in test [8], 12.9 µM in test [9] and 10.6 µM in test [10].

For the compound `Cc1cc(O)ccc1O`, the GI50 in [1] is 21.2 µM; in test [2], 34.8 µM; in [3] it was 45.4 µM; in test [4], 32.8 µM; in [5] it was 15.5 µM; in test [6] it was 30.6 µM. The GI50 in [7] was 72.9 µM; in test [8] it was 14.4 µM; in [9], 32.8 µM; in [10] it was 13.4 µM. Moreover, the TGI was 75.8 µM in test [1]; more than 100 µM in [2]; more than 100 µM in test [3]; more than 100 µM in [4]; 29.1 µM in test [5]; more than 100 µM in [6]. The TGI in [7] was more than 100 µM; in test [8] it was 27.8 µM; in test [9], more than 100 µM; in [10] it was 26.2 µM.
